# Source: article PMC5218480 (PLoS ONE, 2017)
# Test system: MV-4-11 cells
# Test: Gene expression microarray analysis (Affymetrix PrimeView) and GSEA
# Assay type: cell-based, human
# Set-up: RFU PODN (11730768_x_at) / Fold change /veh PODN (11730768_x_at) / RFU LINC00158 (11744669_a_at) / Fold change /veh LINC00158 (11744669_a_at) / RFU DUSP10 (11751237_a_at) / Fold change /veh DUSP10 (11751237_a_at) / RFU ID3 (11757404_x_at) / Fold change /veh ID3 (11757404_x_at) / RFU PLEKHG5 (11737974_s_at) / Fold change /veh PLEKHG5 (11737974_s_at) / RFU LRRC4B (11730491_at) / Fold change /veh LRRC4B (11730491_at) / RFU GIMAP4 (11747438_a_at) / Fold change /veh GIMAP4 (11747438_a_at) / RFU KRT8 (11758183_x_at) / Fold change /veh KRT8 (11758183_x_at) / RFU CNN1 (11734310_a_at) / Fold change /veh CNN1 (11734310_a_at) / RFU VPS37D (11726825_at) / Fold change /veh VPS37D (11726825_at) / RFU C10orf10 (11716522_x_at) / Fold change /veh C10orf10 (11716522_x_at) / RFU KIR2DL2 /// KIR2DL4 /// KIR2DL5A /// KIR2DL5B /// KIR2DS1 /// KIR2DS2 /// KIR2DS3 /// KIR2DS4 /// KIR3DL3 /// KIR3DL3 /// KIR3DS1 (11738374_at) / Fold change /veh KIR2DL2 /// KIR2DL4 /// KIR2DL5A /// KIR2DL5B /// KIR2DS1 /// KIR2DS2 /// KIR2DS3 /// KIR2DS4 /// KIR3DL3 /// KIR3DL3 /// KIR3DS1 (11738374_at) / RFU C1QL1 (11718748_at) / Fold change /veh C1QL1 (11718748_at) / RFU TMPRSS4 (11747572_a_at) / Fold change /veh TMPRSS4 (11747572_a_at) / RFU HAMP (11756126_x_at) / Fold change /veh HAMP (11756126_x_at) / RFU RNFT2 (11725882_a_at) / Fold change /veh RNFT2 (11725882_a_at) / RFU NR4A2 (11747474_a_at) / Fold change /veh NR4A2 (11747474_a_at) / RFU ABCC12 (11746883_a_at) / Fold change /veh ABCC12 (11746883_a_at) / RFU TMEM136 (11760407_x_at) / Fold change /veh TMEM136 (11760407_x_at) / RFU CLDN22 /// WWC2 (11732394_at) / Fold change /veh CLDN22 /// WWC2 (11732394_at) / RFU HLA-DPB1 (11760878_x_at) / Fold change /veh HLA-DPB1 (11760878_x_at) / RFU SPINT1 (11716480_a_at) / Fold change /veh SPINT1 (11716480_a_at) / RFU GAP43 (11754022_s_at) / Fold change /veh GAP43 (11754022_s_at) / RFU A4GNT (11735810_at) / Fold change /veh A4GNT (11735810_at) / RFU PRB3 (11715151_x_at) / Fold change /veh PRB3 (11715151_x_at) / RFU TUBB4B (11761932_at) / Fold change /veh TUBB4B (11761932_at) / RFU CAPN14 (11732068_a_at) / Fold change /veh CAPN14 (11732068_a_at) / RFU TMCC2 (11721928_a_at) / Fold change /veh TMCC2 (11721928_a_at) / RFU IRGQ (11745062_a_at) / Fold change /veh IRGQ (11745062_a_at) / RFU FAM174B (11720279_a_at) / Fold change /veh FAM174B (11720279_a_at) / RFU TMPRSS4 (11748680_a_at) / Fold change /veh TMPRSS4 (11748680_a_at) / RFU FAM212B (11763350_a_at) / Fold change /veh FAM212B (11763350_a_at) / RFU PLEKHG5 (11743358_a_at) / Fold change /veh PLEKHG5 (11743358_a_at) / RFU ZSCAN30 (11745921_a_at) / Fold change /veh ZSCAN30 (11745921_a_at) / RFU CMKLR1 (11741424_a_at) / Fold change /veh CMKLR1 (11741424_a_at) / RFU LOC101060620 /// MAPK8IP1 (11723275_at) / Fold change /veh LOC101060620 /// MAPK8IP1 (11723275_at) / RFU SPTSSB (11747773_x_at) / Fold change /veh SPTSSB (11747773_x_at) / RFU PRSS12 (11739890_at) / Fold change /veh PRSS12 (11739890_at) / RFU BIN1 (11741810_x_at) / Fold change /veh BIN1 (11741810_x_at) / RFU WNT11 (11732464_a_at) / Fold change /veh WNT11 (11732464_a_at) / RFU C10orf10 (11716521_a_at) / Fold change /veh C10orf10 (11716521_a_at) / RFU C5orf56 (11738089_at) / Fold change /veh C5orf56 (11738089_at) / RFU CYB561 (11721691_x_at) / Fold change /veh CYB561 (11721691_x_at) / RFU ANKRD19P (11752326_a_at) / Fold change /veh ANKRD19P (11752326_a_at) / RFU OR2T12 /// OR2T33 /// OR2T8 (11738714_s_at) / Fold change /veh OR2T12 /// OR2T33 /// OR2T8 (11738714_s_at) / RFU VCAN (11748164_a_at) / Fold change /veh VCAN (11748164_a_at) / RFU JSRP1 (11732532_at) / Fold change /veh JSRP1 (11732532_at) / RFU KRTAP10-11 (11738290_x_at) / Fold change /veh KRTAP10-11 (11738290_x_at) / RFU MYO3A (11730013_a_at) / Fold change /veh MYO3A (11730013_a_at) / RFU EBF3 (11725865_a_at) / Fold change /veh EBF3 (11725865_a_at) / RFU CAMK2N1 (11719241_x_at) / Fold change /veh CAMK2N1 (11719241_x_at) / RFU C5orf56 (11738088_a_at) / Fold change /veh C5orf56 (11738088_a_at) / RFU OLFML3 (11715873_a_at) / Fold change /veh OLFML3 (11715873_a_at) / RFU LOC100653217 /// NTM (11731650_a_at) / Fold change /veh LOC100653217 /// NTM (11731650_a_at) / RFU MAPK11 (11762145_a_at) / Fold change /veh MAPK11 (11762145_a_at) / RFU FIZ1 (11724087_x_at) / Fold change /veh FIZ1 (11724087_x_at) / RFU OASL (11726364_x_at) / Fold change /veh OASL (11726364_x_at) / RFU SOX15 (11748057_x_at) / Fold change /veh SOX15 (11748057_x_at) / RFU CD79A (11719716_a_at) / Fold change /veh CD79A (11719716_a_at) / RFU HIST1H1D (11736915_at) / Fold change /veh HIST1H1D (11736915_at) / RFU CASKIN2 (11723855_a_at) / Fold change /veh CASKIN2 (11723855_a_at) / RFU LOC730098 (11760151_x_at) / Fold change /veh LOC730098 (11760151_x_at) / RFU OR4N2 (11742367_at) / Fold change /veh OR4N2 (11742367_at) / RFU PRRT2 (11749266_a_at) / Fold change /veh PRRT2 (11749266_a_at) / RFU SNX32 (11753110_a_at) / Fold change /veh SNX32 (11753110_a_at) / RFU CDHR5 (11726645_a_at) / Fold change /veh CDHR5 (11726645_a_at) / RFU RCAN1 (11760418_a_at) / Fold change /veh RCAN1 (11760418_a_at) / RFU FAM167A (11723789_a_at) / Fold change /veh FAM167A (11723789_a_at) / RFU FAM26E (11764081_at) / Fold change /veh FAM26E (11764081_at) / RFU ISYNA1 (11749810_s_at) / Fold change /veh ISYNA1 (11749810_s_at) / RFU ACY1 (11761880_at) / Fold change /veh ACY1 (11761880_at) / RFU 11764098_at / Fold change /veh 11764098_at / RFU SAMD14 (11745864_x_at) / Fold change /veh SAMD14 (11745864_x_at) / RFU NPB (11741838_a_at) / Fold change /veh NPB (11741838_a_at) / RFU TMPRSS6 (11731388_a_at) / Fold change /veh TMPRSS6 (11731388_a_at) / RFU KRTAP10-2 (11738614_at) / Fold change /veh KRTAP10-2 (11738614_at) / RFU ARHGAP8 /// PRR5-ARHGAP8 (11727945_x_at) / Fold change /veh ARHGAP8 /// PRR5-ARHGAP8 (11727945_x_at) / RFU KRTAP5-7 /// NADSYN1 (11734609_at) / Fold change /veh KRTAP5-7 /// NADSYN1 (11734609_at) / RFU RASL12 (11751679_a_at) / Fold change /veh RASL12 (11751679_a_at) / RFU CDKN2B (11736163_a_at) / Fold change /veh CDKN2B (11736163_a_at) / RFU PRF1 (11729649_at) / Fold change /veh PRF1 (11729649_at) / RFU, ZNF638 /// ZNF638-IT1 / Fold change vs veh, ZNF638 /// ZNF638-IT1 / RFU, PANK3 / Fold change vs veh, PANK3 / RFU, SH3YL1 / Fold change vs veh, SH3YL1 / RFU, ZEB2 / Fold change vs veh, ZEB2 / RFU, NRIP1 / Fold change vs veh, NRIP1 / RFU, PTTG1IP / Fold change vs veh, PTTG1IP / RFU, CAPN2 / Fold change vs veh, CAPN2 / RFU, MED14 / Fold change vs veh, MED14 / RFU, SNORA58 / Fold change vs veh, SNORA58 / RFU, C1orf63 / Fold change vs veh, C1orf63 / RFU, LRRFIP1 / Fold change vs veh, LRRFIP1 / RFU, NDUFAF7 / Fold change vs veh, NDUFAF7 / RFU, SLC12A2 / Fold change vs veh, SLC12A2 / RFU, IBTK / Fold change vs veh, IBTK / RFU, ESF1 / Fold change vs veh, ESF1 / Fold change vs veh, TMEM50B / RFU, TAOK1 / Fold change vs veh, TAOK1 / RFU, ACBD3 / Fold change vs veh, ACBD3 / RFU, TMA16 / Fold change vs veh, TMA16 / RFU, RWDD3 / Fold change vs veh, RWDD3 / RFU, BCAT1 / Fold change vs veh, BCAT1 / RFU, EDEM3 / Fold change vs veh, EDEM3 / RFU, TMEM33 / Fold change vs veh, TMEM33 / RFU, WDR75 / Fold change vs veh, WDR75 / RFU, AHCTF1 / Fold change vs veh, AHCTF1 / RFU, TFRC / Fold change vs veh, TFRC / RFU, ZDHHC17 / Fold change vs veh, ZDHHC17 / RFU, NOM1 / Fold change vs veh, NOM1 / RFU, ARL8B / Fold change vs veh, ARL8B / RFU, ZBTB11 / Fold change vs veh, ZBTB11 / RFU, TAMM41 / Fold change vs veh, TAMM41 / RFU, KIAA1704 /// LOC100996395 / Fold change vs veh, KIAA1704 /// LOC100996395 / RFU, ING1 / Fold change vs veh, ING1 / RFU, TRMT61B / Fold change vs veh, TRMT61B / RFU, FUBP3 / Fold change vs veh, FUBP3 / RFU, TP53 / Fold change vs veh, TP53 / RFU, TNKS2 / Fold change vs veh, TNKS2 / RFU, ZFP14 / Fold change vs veh, ZFP14 / RFU, ACTR2 / Fold change vs veh, ACTR2 / RFU, PPP3R1 / Fold change vs veh, PPP3R1 / RFU, PIK3R1 / Fold change vs veh, PIK3R1 / RFU, HNRNPA1 / Fold change vs veh, HNRNPA1 / RFU, RNF170 / Fold change vs veh, RNF170 / RFU, ZNF28 / Fold change vs veh, ZNF28 / RFU, RNGTT / Fold change vs veh, RNGTT / RFU, OGT / Fold change vs veh, OGT / RFU, BRD1 / Fold change vs veh, BRD1 / RFU, MARS / Fold change vs veh, MARS / RFU, ZNF655 / Fold change vs veh, ZNF655 / RFU, FAHD1 / Fold change vs veh, FAHD1 / RFU, BDP1 / Fold change vs veh, BDP1 / RFU, LRRCC1 / Fold change vs veh, LRRCC1 / RFU, ARID1A / Fold change vs veh, ARID1A / RFU, ZNF146 / Fold change vs veh, ZNF146 / RFU, ZNF330 / Fold change vs veh, ZNF330 / RFU, GPN3 / Fold change vs veh, GPN3 / RFU, C9orf123 / Fold change vs veh, C9orf123 / RFU, N4BP2L2 / Fold change vs veh, N4BP2L2 / RFU, ARFIP1 / Fold change vs veh, ARFIP1 / RFU, FAM179B / Fold change vs veh, FAM179B / RFU, BCL10 / Fold change vs veh, BCL10 / RFU, UHRF1BP1L / Fold change vs veh, UHRF1BP1L / RFU, BET1 / Fold change vs veh, BET1 / RFU, CNOT2 / Fold change vs veh, CNOT2 / RFU, ZNF268 / Fold change vs veh, ZNF268 / Fold change vs veh, ZNF507 / RFU, DGCR2 / Fold change vs veh, DGCR2 / RFU, WDSUB1 / Fold change vs veh, WDSUB1 / Fold change vs veh, HSP90B1 /// MIR3652 / RFU, ADSS / Fold change vs veh, ADSS / RFU, GK / Fold change vs veh, GK / RFU, ZNF148 / Fold change vs veh, ZNF148 / RFU, TAF9 / Fold change vs veh, TAF9 / RFU, SLC1A5 / Fold change vs veh, SLC1A5 / RFU, SLMO2 / Fold change vs veh, SLMO2 / RFU, ABCC4 / Fold change vs veh, ABCC4 / RFU, LOC101060439 /// RAP1B / Fold change vs veh, LOC101060439 /// RAP1B / RFU, RFX7 / Fold change vs veh, RFX7 / RFU, GTPBP10 / Fold change vs veh, GTPBP10 / RFU, CNEP1R1 / Fold change vs veh, CNEP1R1 / RFU, BIVM-ERCC5 /// ERCC5 / Fold change vs veh, BIVM-ERCC5 /// ERCC5 / RFU, ILF3 / Fold change vs veh, ILF3 / RFU 11762660_at / Fold change /veh 11762660_at / RFU VCAN (11757783_s_at) / Fold change /veh VCAN (11757783_s_at) / RFU DDX43 (11728927_at) / Fold change /veh DDX43 (11728927_at) / RFU KRT8 (11758188_x_at) / Fold change /veh KRT8 (11758188_x_at) / RFU NKD1 (11759106_at) / Fold change /veh NKD1 (11759106_at) / RFU SRD5A1 (11742802_a_at) / Fold change /veh SRD5A1 (11742802_a_at) / RFU TPSAB1 /// TPSB2 (11721975_s_at) / Fold change /veh TPSAB1 /// TPSB2 (11721975_s_at) / RFU GSTM3 (11746129_a_at) / Fold change /veh GSTM3 (11746129_a_at) / RFU IL23R (11737362_x_at) / Fold change /veh IL23R (11737362_x_at) / RFU TMEM51 (11727254_a_at) / Fold change /veh TMEM51 (11727254_a_at) / RFU PIWIL2 (11732686_x_at) / Fold change /veh PIWIL2 (11732686_x_at) / RFU ORM1 (11744905_x_at) / Fold change /veh ORM1 (11744905_x_at) / RFU CCDC152 (11743942_at) / Fold change /veh CCDC152 (11743942_at) / RFU ECM1 (11717891_a_at) / Fold change /veh ECM1 (11717891_a_at) / RFU IL23R (11748794_a_at) / Fold change /veh IL23R (11748794_a_at) / RFU TNFAIP8L3 (11732012_x_at) / Fold change /veh TNFAIP8L3 (11732012_x_at) / RFU MBOAT4 (11741988_at) / Fold change /veh MBOAT4 (11741988_at) / RFU 11764193_at / Fold change /veh 11764193_at / RFU TMEM53 (11763286_at) / Fold change /veh TMEM53 (11763286_at) / RFU MAGEB2 (11727129_at) / Fold change /veh MAGEB2 (11727129_at) / RFU TMEM200A (11744735_a_at) / Fold change /veh TMEM200A (11744735_a_at) / RFU CCDC152 (11751479_a_at) / Fold change /veh CCDC152 (11751479_a_at) / RFU FAM211A (11726209_a_at) / Fold change /veh FAM211A (11726209_a_at) / RFU RGS16 (11746705_a_at) / Fold change /veh RGS16 (11746705_a_at) / RFU VCAN (11755009_s_at) / Fold change /veh VCAN (11755009_s_at) / RFU RHOB (11743442_s_at) / Fold change /veh RHOB (11743442_s_at) / RFU RGS16 (11720943_a_at) / Fold change /veh RGS16 (11720943_a_at) / RFU RGS16 (11720944_at) / Fold change /veh RGS16 (11720944_at) / RFU, VPS4B / Fold change vs veh, VPS4B / RFU, CREB1 / Fold change vs veh, CREB1 / RFU, DNAJC13 / Fold change vs veh, DNAJC13 / RFU, GNAQ / Fold change vs veh, GNAQ / RFU, CDK5R1 / Fold change vs veh, CDK5R1 / RFU, ZRANB3 / Fold change vs veh, ZRANB3 / RFU, CUL4A / Fold change vs veh, CUL4A / RFU, CCNY / Fold change vs veh, CCNY / RFU, UFL1 / Fold change vs veh, UFL1 / RFU, COG3 / Fold change vs veh, COG3 / RFU, DIAPH2 / Fold change vs veh, DIAPH2 / RFU, SKA2 / Fold change vs veh, SKA2 / RFU, AFF3 / Fold change vs veh, AFF3 / RFU, LMF1 / Fold change vs veh, LMF1 / RFU, IPO11 / Fold change vs veh, IPO11 / RFU, DFFB / Fold change vs veh, DFFB / RFU, FOXP1 / Fold change vs veh, FOXP1 / RFU, CARD8 / Fold change vs veh, CARD8 / RFU, STRN3 / Fold change vs veh, STRN3 / RFU, ADK / Fold change vs veh, ADK / RFU, RASSF2 / Fold change vs veh, RASSF2 / RFU, WIPF1 / Fold change vs veh, WIPF1 / RFU, LARP1B / Fold change vs veh, LARP1B / RFU, RASA1 / Fold change vs veh, RASA1 / RFU, RB1 / Fold change vs veh, RB1 / RFU, PPFIA1 / Fold change vs veh, PPFIA1 / RFU, MAT2A / Fold change vs veh, MAT2A / RFU, CCT5 / Fold change vs veh, CCT5 / RFU, WDR92 / Fold change vs veh, WDR92 / RFU, CUX1 / Fold change vs veh, CUX1 / RFU, TTC7A / Fold change vs veh, TTC7A / RFU, TMEM135 / Fold change vs veh, TMEM135 / RFU, DEPTOR / Fold change vs veh, DEPTOR / RFU, CPM / Fold change vs veh, CPM / RFU, DNAJB6 / Fold change vs veh, DNAJB6 / RFU, CACNA2D3 / Fold change vs veh, CACNA2D3 / RFU, DTX4 / Fold change vs veh, DTX4 / RFU, TFCP2 / Fold change vs veh, TFCP2 / RFU, GMCL1 /// GMCL1P1 / Fold change vs veh, GMCL1 /// GMCL1P1 / RFU, AEBP2 / Fold change vs veh, AEBP2 / RFU, SNHG1 /// SNORD22 /// SNORD25 /// SNORD26 /// SNORD27 /// SNORD28 /// SNORD29 /// SNORD31 / Fold change vs veh, SNHG1 /// SNORD22 /// SNORD25 /// SNORD26 /// SNORD27 /// SNORD28 /// SNORD29 /// SNORD31 / Fold change (Aza/veh), C12orf56 (ProbeSet 11735607_a_at) / Fold change (ACY-1035/veh), C12orf56 (ProbeSet 11735607_a_at) / Fold change (Aza/veh), FGFR1OP (ProbeSet 11751329_s_at) / Fold change (ACY-1035/veh), FGFR1OP (ProbeSet 11751329_s_at) / Fold change (Aza/veh), VPS36 (ProbeSet 11739960_a_at) / Fold change (ACY-1035/veh), VPS36 (ProbeSet 11739960_a_at) / RFU SYPL1 (11715823_x_at) / Fold change /veh SYPL1 (11715823_x_at) / RFU IGFBP7 (11715501_s_at) / Fold change /veh IGFBP7 (11715501_s_at) / RFU REEP3 (11722064_at) / Fold change /veh REEP3 (11722064_at) / RFU IGLL1 (11728026_x_at) / Fold change /veh IGLL1 (11728026_x_at): dose or concentration left out as unconfirmed
# Settings: MV-4-11 cells, 48 hours
compound,measurement,value
Nc1ccc(-c2cccs2)cc1NC(=O)c1ccc2c(c1)cc(C1CC1)n2CCN1CCOCC1 [ACY-1035],Fold change /veh TMEM53 (11763286_at),0.91
